Experimental findings from patent US10703784B2, “Antigens and epitopes derived from Mycobacterium tuberculosis” (priority 2011, dated 2020) are described below.

Substitutions are numbered along the chain they refer to. Several values for one entry are separate records, joined by “and”; a condition that tells them apart may be missing. Equal entries are not always repeated.

B1: Rv3330: MTB protein, novel CD4 T cell antigen; Cell wall and cell processes (protein, listed as Mycobacterium tuberculosis)
chain: MAFLRSVSCLAAAVFAVGTGIGLPTAAGEPNAAPAACPYKVSTPPAVDSSEVPAAGEPPLPLVVPPTPVGGNALGGCGIITAPGSAPAPGDVSAEAWLVADLDSGAVIAARDPHGRHRPASVIKVLVAMASINTLTLNKSVAGTADDAAVEGTKVGVNTGGTYTVNQLLHGLLMHSGNDAAYALARQLGGMPAALEKINLLAAKLGGRDTRVATPSGLDGPGMSTSAYDIGLFYRYAWQNPVFADIVATRTFDFPGHGDHPGYELENDNQLLYNYPGALGGKTGYTDDAGQTFVGAANRDGRRLMTVLLHGTRQPIPPWEQAAHLLDYGFNTPAGTQIGTLIEPDPSLMSTDRNPADRQRVDPQAAARISAADALPVRVGVAVIGALIVFGLIMVARAMNRRPQH
B2: Rv1788: MTB protein, novel CD4 T cell antigen; PE/PPE (protein, listed as Mycobacterium tuberculosis)
chain: MSFVTTQPEALAAAAGSLQGIGSALNAQNAAAATPTTGVVPAAADEVSALTAAQFAAHAQIYQAVSAQAAAIHEMFVNTLQMSSGSYAATEAANAAAAG
B3: Rv1791: MTB protein, novel CD4 T cell antigen; PE/PPE (protein, listed as Mycobacterium tuberculosis)
chain: B2 chain with G16A, S17N, S23T, A24T, L25M, T34A, I61M, A64T, Q81V, M82A
B4: Rv3615c: MTB antigen functionally linked to Esx-1 (Millington et al., 2011); single antigen, not part of an antigenic island (protein, UniProt P9WJD7 2-103, looked up)
ESX-1 secretion-associated …: TENLTVQPERLGVLASHHDNAAVDASSGVEAAAGLGESVAITHGPYCSQFNDTLNVYLTAHNALGSSLHTAGVDLAKSLRIAAKIYSEADEAWRKAIDGLFT

For the first assay, the system named is PBMCs from LTBI donors (IFN-γ production). Format: cell-based, human.
Settings: not given
For the molecule HTVLVATNFFGINTI, the SFC is given as 331.7.

Still in this assay, the particulars now being: fraction of 28 LTBI donors responding to epitopes of the antigen, ex vivo IFN-γ ELISPOT.
Molecule “Rv0289: MTB protein, novel CD4 T cell antigen; Cell wall and cell processes, Island 1, Esx-3” showed a Resp. freq. of 29%.

“Rv1243c: MTB protein, novel CD4 T cell antigen; PE/PPE” returned a Resp. freq. of 11%. Same read-out and setting: next, “Rv2853: MTB protein, novel CD4 T cell antigen; PE/PPE”: 11%; “Rv3022c: MTB protein, novel CD4 T cell antigen; PE/PPE, Island 2”: 18%; B1: 29%.

Molecule B2 showed a Resp. freq. of 25%.

Regarding B3, the Resp. freq. is recorded as 25%.

Staying with this assay, now noted: individual MTB epitope peptide; one value per responding LTBI donor.
The molecule AAAQASAAAAAYEAA yielded an SFC of 20.0.

As to AAFDYADGAAEDELS, the SFC is 21.7.

In the case of AAHAGEYGQMVTLRG, the SFC was determined as 23.3.

For the molecule AAVIVGSGRIASLYV, the SFC came to 23.3. The same measure, in the same setting: next, ADKNPLFLDEQLTRA: 45.0. The same measure, in the same setting: under ADVLTMKAVRAATAL stands 41.7; under AELFRLQTEFVKLQE, 85.0; under AGAMGAYAAAEAANA, 111.7.

In turn, AGGFGGAGAGIANFL showed an SFC of 20.0. On the same count and under the same terms, next, AGISSLIIDPNPMFV: 88.3; AGTLSTFFGVPLVLT: 21.7; AGYPAELAYFEVLHE: 23.3. As to AHESLCFAGANLIPL, the SFC was 25.0. Still for that read-out and setting: next, AHLIHFAAANLRNPG: 30.0; ALEMFYDDDADLSII: 25.0; ALLWLADQVDAALEK: 48.3. Regarding ALPRLLRRLVIMGGM, the SFC was 128.3. Still for that read-out and setting: next, ALRILVYSDNVQTRE: 91.7; ALVEEYLRGLRQAAG: 30.0. Still for that read-out and setting: next, AMNEAFVAMLGASAD: 31.7. Same read-out and setting: next, APPNLIRAILRAPVD: 30.0. For the molecule APVVILAHGFPELAY, the SFC is listed as 23.3. Still for that read-out and setting: under APWQQVLRNLGIDIG stands 96.7. The same measure, in the same setting: under AQEYQALSAQAAAFH stands 41.7. Still for that read-out and setting: next, AQIIHRITATARHPG: 53.3; AQTSQFVMAMINYED: 26.7; ARFHQQFVQALTASV: 35.0. With ARVFLDSVLPALGEE, the SFC came out at 38.3. The same measure, in the same setting: under ASMSMAAAASPYVGW stands 78.3; under ASVGSYAAAEAANAS, 38.3; under AVDAVFVGSCTNGRI, 46.7. Still for that read-out and setting: under AVITELIAMLRHHHI stands 40.0; under AVLEDPYILLVSSKV, 21.7; under AVLLEKIVADEEEHI, 26.7 and 28.3.

For the molecule AVSIGILLSLIAPLG, the SFC worked out at 55.0.

With AVVVLKRLPDALADG, the SFC is listed as 25.0.

CLGSHLARLELTLLV yielded an SFC of 91.7. On the same count and under the same terms, under CRGYDVVILDRYVAS stands 21.7. The same measure, in the same setting: under CRRYEVLLIFDEIAT stands 65.0; under CSEDLLYLSDLDFDV, 33.3. For DDIPRVLAEAFHIAA, the SFC turned out to be 31.7. On the same count and under the same terms, next, DLDSYLVEITAEVLR: 23.3. On the same count and under the same terms, under DMTKIVGLRARAKAA stands 35.0; under DPINEFFLANTGRPL, 66.7; under DPVKGADEVVAFAEE, 813.3. Same read-out and setting: under DSTVITDGDIVNIDV stands 31.7; under DTEVYLDAASLSPFV, 266.7. As to DTQSMIVTDHRYVPA, the SFC is recorded as 33.3.

As to DVIHAFWVPEFLFKR, the SFC is 158.3. In turn, DVTIRFRRFFSRLQR had an SFC of 50.0. Still for that read-out and setting: next, EGGNQIVQYLVAQKI: 25.0; EHFGHERYDAFFSLA: 66.7. Still for that read-out and setting: under EHIHRPNTNNVGPII stands 65.0. In turn, EIYLNTFRHLYGLDC gave an SFC of 25.0. Same read-out and setting: next, EKMRVAGRIAAGALA: 20.0; ELADLIEFARTVNEE: 43.3; EMLSMLRAMLAPESL: 40.0. On the same count and under the same terms, next, ENFFMFIAEEVREYL: 23.3 and 65.0; EPGDIIIDGGNALYT: 35.0. On the same count and under the same terms, next, EQMLIDDGILLRKYW: 178.3; ERYVGLYLPFLDMSF: 23.3. For the molecule ESALFFIGVLIVALL, the SFC is given as 55.0.

ESGASYAARDALAAA: the SFC is recorded as 45.0. The same measure, in the same setting: next, ESVFAATVAELESLI: 36.7. In turn, ETLYWLAQPGIRESI yielded an SFC of 31.7. Still for that read-out and setting: under EVNIKILIDSLVSAG stands 201.7. On the same count and under the same terms, next, FFGQNAPAIAAIEAA: 20.0 and 21.7; FLMSVGALIIGWLLQ: 26.7; FRVVISSRFGDIFRG: 20.0. FSLVNFFDAQVGPLS yielded an SFC of 43.3.

GAYAAAEAANVSAAQ registered an SFC of 176.7. GFTIANHNAAAVGEI had an SFC of 140.0. GQQYQAMSAQAAAFH displayed an SFC of 50.0. The same measure, in the same setting: next, GSAENFSVVEALADS: 138.3 and 20.0.

With GSTINAANAAAALPT, the SFC is 36.7 and 190.0.

The molecule HPQQFIYAGSLSALL yielded an SFC of 35.0. The same measure, in the same setting: next, IGLVLIAVLVFVPRV: 38.3. Still for that read-out and setting: under IGSSIGAANAAAAGS stands 45.0.

Take ITPDEGAYAFEALLR: the SFC was found to be 28.3. The same measure, in the same setting: under KMAPVLRQIYDQMAE stands 66.7. Still for that read-out and setting: under LDWFCLFSSAAALTG stands 23.3. The same measure, in the same setting: next, LLSTRGYITAEKIRS: 35.0; LPLLVPLRAIPLLGN: 20.0.

LRLLVIALKHNVILN came in with an SFC of 31.7. For LTVDAGAYASAEAAN, the SFC was 31.7 and 58.3.

Take LVAQEAAAAGTPLVT: the SFC was 23.3. LVLVIDDEPQILRAL: the SFC was determined as 81.7. Consider LYRPGLVHIYHALTW, for which the SFC is given as 28.3. For MAKTIAYDEEARRGL, the SFC was 38.3 and 56.7. For MDYFIRMWNQAALAM, the SFC is reported as 46.7. On the same count and under the same terms, under NPFPFLRQIIANQQV stands 26.7; under NRASLMQLISTNVFG, 21.7. The same measure, in the same setting: under PPEVNSARVFAGAGS stands 38.3 and 31.7; under QAARGIRPLFDDITE, 21.7; under QAFRSRFGENFFYIL, 31.7. Same read-out and setting: under QAVLTATNFFGINTI stands 341.7; under QLSAEYASTAAELSG, 26.7; under QRPRMLYDYFHQLFA, 141.7. In the case of QTLVYKGMLTTPQLK, the SFC worked out at 40.0. Still for that read-out and setting: under RARQGFRDIEFHPTI stands 45.0 and 28.3. Same read-out and setting: next, RVIEDALRFYFESHE: 141.7; RVLLAGWEQFDEPVD: 101.7; SAAGSYAAAEAANAS: 91.7 and 21.7. On the same count and under the same terms, next, SEFNEVFFNDVFVPD: 41.7; SILDMRQLFDGIDLS: 26.7.

Molecule SLAVKTFEDLFAELG returned an SFC of 23.3. The same measure, in the same setting: next, SQVIEAVNLFRANVI: 33.3. Consider TDNGAMIAAFAAQLV, for which the SFC is 203.3 and 30.0. Same read-out and setting: under TGIFGLVLVICVVLI stands 35.0; under TVAWTMLGVALSAYE, 50.0 and 25.0; under VDVEDGRVIVDEYQR, 20.0. On the same count and under the same terms, under YLAWLSTAAAQAEQA stands 145.0 and 100.0.

The same assay, now with this note: result in words.
Regarding B4, the “recognition by LTBI donors” value is on record as “prevalently recognized”.

Still in this assay, the particulars now being: total spot-forming cells, LTBI donors, ex vivo IFN-γ ELISPOT.
Regarding “Rv0289: MTB protein, novel CD4 T cell antigen; Cell wall and cell processes, Island 1, Esx-3”, the “Total SFC” value amounted to 2298 SFC.

For “Rv1243c: MTB protein, novel CD4 T cell antigen; PE/PPE”, the “Total SFC” value is 114 SFC. Same read-out and setting: next, “Rv2853: MTB protein, novel CD4 T cell antigen; PE/PPE”: 85 SFC.

With “Rv3022c: MTB protein, novel CD4 T cell antigen; PE/PPE, Island 2”, the “Total SFC” value stood at 109 SFC. The same measure, in the same setting: under B1 stands 1595 SFC; under B2, 347 SFC; under B3, 355 SFC.
